Measured values: publication PMC8279013 (Toxicology letters, 2020)

Target: T1, pregnane X receptor (PXR) (Homo sapiens, UniProt O75469)
T1 sequence (O75469 1-434): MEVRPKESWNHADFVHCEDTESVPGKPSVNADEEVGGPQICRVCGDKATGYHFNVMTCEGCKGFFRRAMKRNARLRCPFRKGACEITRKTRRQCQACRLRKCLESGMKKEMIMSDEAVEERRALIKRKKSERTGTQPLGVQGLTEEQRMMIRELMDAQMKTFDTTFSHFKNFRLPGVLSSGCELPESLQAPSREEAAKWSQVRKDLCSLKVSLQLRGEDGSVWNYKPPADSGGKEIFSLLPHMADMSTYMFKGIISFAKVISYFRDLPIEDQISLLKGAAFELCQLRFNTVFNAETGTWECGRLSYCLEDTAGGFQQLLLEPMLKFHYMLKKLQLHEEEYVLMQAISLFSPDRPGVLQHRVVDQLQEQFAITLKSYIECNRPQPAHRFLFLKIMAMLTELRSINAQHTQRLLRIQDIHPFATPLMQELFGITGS
Assay: PXR element luciferase reporter, RIF-stimulated, stable hPXR-HRE cells
Assay type: cell-based

SMILES: CC(=O)N1CCN(c2ccc(OC[C@H]3CO[C@](Cn4ccnc4)(c4ccc(Cl)cc4Cl)O3)cc2)CC1 (racemic) [ketoconazole]
- IC50: 22.4 µM
